Data from patent publication US20230048132A1, “CYCLIN-DEPENDENT KINASE INHIBITORS” (SPV THERAPEUTICS INC., priority 2018, published 2023).

Assays:
CDK9-CYCLINT1 = biological target: T1, CDK9-CYCLINT1 (Homo sapiens, UniProt P50750); assay: CDK inhibition assay (microfluidic LabChip, IC50 format); type: biochemical; conditions: Table 4a; read-out: CDK9 CyclinT1 IC50
T1 construct: purchased Carna

MAXFLB T47D (ER+) = assay: 2D cell proliferation assay (CellTiter-Blue); type: cell-based; conditions: Homo sapiens, 72 h, three days of treatment, read-out: abs. IC50
Method in brief: (§1)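 Compound exposure lasts 3 days at 37° C and 5% CO2 following a 24 h post-seeding recovery, using five full-log concentrations up to 100 μM in duplicate. Viability is quantified with CellTiter-Blue (ex 570/em 600 nm) and normalised to untreated controls; […].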

LXFE Calu-1 = assay: 2D cell proliferation assay (CellTiter-Blue); type: cell-based; conditions: Homo sapiens, 72 h, three days of treatment, read-out: abs. IC50
Method in brief: as §1

BXF 5637 = assay: 2D cell proliferation assay (CellTiter-Blue); type: cell-based; conditions: 72 h, three days of treatment, read-out: abs. IC50
Method in brief: as §1

MAXFTN MDA-MB-231 (ER−) = assay: 2D cell proliferation assay (CellTiter-Blue); type: cell-based; conditions: Homo sapiens, 72 h, three days of treatment, read-out: abs. IC50
Method in brief: as §1

PAXF MIA-Pa-Ca-2 = assay: 2D cell proliferation assay (CellTiter-Blue); type: cell-based; conditions: Homo sapiens, MIA PaCa-2, 72 h, three days of treatment, read-out: abs. IC50
Method in brief: as §1

MAXFTN ZR-75-1 (ER+) = assay: 2D cell proliferation assay (CellTiter-Blue); type: cell-based; conditions: Homo sapiens, 72 h, three days of treatment, read-out: abs. IC50
Method in brief: (§2)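 Fluorescence from CellTiter-Blue reduction served as the viability signal after cells had been treated for three days with up to 100 μM compound (five log-spaced doses). Values are IC50 from a four-parameter curve fit of treated/control signal.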

CNXF U-87 MG = assay: 2D cell proliferation assay (CellTiter-Blue); type: cell-based; conditions: Homo sapiens, 72 h, three days of treatment, read-out: abs. IC50
Method in brief: as §1

LIXFH HEP-3B = assay: 2D cell proliferation assay (CellTiter-Blue); type: cell-based; conditions: Homo sapiens, Hep3B, 72 h, three days of treatment, read-out: abs. IC50
Method in brief: as §1

LIXAH HLE = assay: 2D cell proliferation assay (CellTiter-Blue); type: cell-based; conditions: 72 h, three days of treatment, read-out: abs. IC50
Method in brief: as §1

MAXFTN MDA-MB-453 = assay: 2D cell proliferation assay (CellTiter-Blue); type: cell-based; conditions: Homo sapiens, 72 h, three days of treatment, read-out: abs. IC50
Method in brief: as §1

MAXFHER BT-474 = assay: 2D cell proliferation assay (CellTiter-Blue); type: cell-based; conditions: Homo sapiens, 72 h, three days of treatment, read-out: abs. IC50
Method in brief: as §1

MAXFLB MCF7 (ER+) = assay: 2D cell proliferation assay (CellTiter-Blue); type: cell-based; conditions: Homo sapiens, 72 h, three days of treatment, read-out: abs. IC50
Method in brief: as §2

all cell lines tested = assay: 2D cell proliferation assay, geometric mean over the cell line panel; type: cell-based; conditions: Table 5 upper part; geometric mean over the 47-line panel; read-out: Geomean abs. IC50 value
Experimental: Viability of the cells was analyzed by using the CellTiter-Blue® Cell Viability Assay (Promega), and was performed according to manufacturer's instructions. Briefly, cells were harvested from exponential phase cultures (Chapter 6.6), counted and plated in 96-well flat-bottom microtiter plates at a cell density of 4,000-60,000 cells/well in a volume of 140 μl per well. After a 24 hours recovery period, 10 μL cell culture medium (six control wells/plate) or culture medium with test compound were added (Chapter 6.2). The compounds were applied at five concentrations in full-log increments up to 100 μM in duplicate. Cultures were incubated at 37° C. and 5% CO2 in a humidified atmosphere for another three days. After three days of treatment, 20 μl/well CellTiter-Blue® reagent was added. Following incubation with CellTiter-Blue® reagent for up to four hours, fluorescence (FU) was measured by using the Enspire Multimode Plate Reader (excitation λ=570 nm, emission λ=600 nm). For calculations, the mean values of duplicate/sextuplicate (untreated control) data were used.
IC values are reported as relative IC50 values and absolute IC50 and IC70 values. […] The absolute IC70 value gives the concentration of the test compound that achieves T/C=30%. The relative IC50 value is the concentration of test compound that gives a response halfway between the top and bottom plateau of the sigmoidal concentration-response curve (inflection point of the curve). Calculation was done by 4parameter non-linear curve fit (Oncotest Data Warehouse Software).
If an IC50 or IC70 value could not be determined within the examined dose range (because a compound was either too active or lacked activity), the lowest or highest concentration studied was used for calculation of the geometric mean value.
The overall potency of a compound was determined by the geometric mean IC50/IC70 values of all individual IC50/IC70 values. In the heatmap representation of IC50 and IC70 values, the distribution of the IC50 or IC70 values obtained for a test compound in the individual cell lines is given in relation to the geometric mean IC50 or IC70 value, obtained over all PDX models tested. The individual IC values range from 1/32-fold geometric mean IC (corresponding to very potent compound activity or high tumor sensitivity) to 32-fold geometric mean IC (corresponding to lack of compound activity or tumor resistance). The heatmap presentation, therefore, represents an antiproliferative “fingerprint” profile of a test compound.

CDK6-CYCLIND3 = biological target: T2, CDK6-CYCLIND3 (Homo sapiens, UniProt Q00534); assay: CDK inhibition assay (microfluidic LabChip, IC50 format); type: biochemical; conditions: Table 4a; read-out: CDK6 CyclinD3 IC50
T2 construct: purchased Carna
T2 sequence (Q00534 whole entry): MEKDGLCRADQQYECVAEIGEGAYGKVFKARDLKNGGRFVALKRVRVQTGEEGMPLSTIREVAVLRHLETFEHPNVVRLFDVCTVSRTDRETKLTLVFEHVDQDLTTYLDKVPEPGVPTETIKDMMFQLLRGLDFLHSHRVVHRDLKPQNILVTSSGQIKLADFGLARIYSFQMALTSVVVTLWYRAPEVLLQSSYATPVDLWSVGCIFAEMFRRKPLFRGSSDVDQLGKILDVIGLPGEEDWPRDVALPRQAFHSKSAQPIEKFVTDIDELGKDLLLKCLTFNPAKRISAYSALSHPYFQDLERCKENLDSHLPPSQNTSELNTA
T2 sequence (P30281 whole entry partner): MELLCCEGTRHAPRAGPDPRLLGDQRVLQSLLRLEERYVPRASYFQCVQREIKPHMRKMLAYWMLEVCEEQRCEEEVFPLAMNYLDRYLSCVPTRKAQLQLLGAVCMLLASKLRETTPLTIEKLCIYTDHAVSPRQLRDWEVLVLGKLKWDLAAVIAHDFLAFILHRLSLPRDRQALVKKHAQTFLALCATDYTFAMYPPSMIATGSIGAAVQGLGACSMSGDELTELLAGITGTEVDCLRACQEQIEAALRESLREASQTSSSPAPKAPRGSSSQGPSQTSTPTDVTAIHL

CDK2-CYCLINA = biological target: T3, CDK2-CYCLINA (Homo sapiens, UniProt P24941); assay: as above; type: biochemical; conditions: Table 4a; read-out: CDK2 CyclinA IC50
T3 construct: purchased Millipore

CDK7 CyclinH = CDK7 CyclinH (Homo sapiens, UniProt P50613); assay: as above; type: biochemical; conditions: Table 4a
CDK7 CyclinH, sequence (P50613 whole entry): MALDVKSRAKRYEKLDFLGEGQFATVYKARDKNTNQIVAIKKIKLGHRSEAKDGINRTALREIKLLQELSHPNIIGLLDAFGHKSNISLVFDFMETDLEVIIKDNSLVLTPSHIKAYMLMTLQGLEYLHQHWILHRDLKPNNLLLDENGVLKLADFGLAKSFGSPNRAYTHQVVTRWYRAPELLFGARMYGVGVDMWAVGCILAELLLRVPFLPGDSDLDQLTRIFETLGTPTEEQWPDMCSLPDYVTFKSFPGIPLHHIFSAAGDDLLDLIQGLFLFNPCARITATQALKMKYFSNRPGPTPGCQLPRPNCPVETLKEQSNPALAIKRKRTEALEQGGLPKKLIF
CDK7 CyclinH, sequence (P51946 whole entry partner): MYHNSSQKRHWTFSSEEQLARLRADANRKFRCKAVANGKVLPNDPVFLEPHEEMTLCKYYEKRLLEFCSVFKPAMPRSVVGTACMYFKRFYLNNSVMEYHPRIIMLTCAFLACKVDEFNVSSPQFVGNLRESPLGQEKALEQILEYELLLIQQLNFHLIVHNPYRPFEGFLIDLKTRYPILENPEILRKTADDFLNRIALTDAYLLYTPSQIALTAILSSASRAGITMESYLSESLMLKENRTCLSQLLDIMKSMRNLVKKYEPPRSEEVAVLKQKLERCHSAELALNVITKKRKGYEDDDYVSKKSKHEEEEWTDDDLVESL
CDK7 CyclinH, sequence (P51948 whole entry partner): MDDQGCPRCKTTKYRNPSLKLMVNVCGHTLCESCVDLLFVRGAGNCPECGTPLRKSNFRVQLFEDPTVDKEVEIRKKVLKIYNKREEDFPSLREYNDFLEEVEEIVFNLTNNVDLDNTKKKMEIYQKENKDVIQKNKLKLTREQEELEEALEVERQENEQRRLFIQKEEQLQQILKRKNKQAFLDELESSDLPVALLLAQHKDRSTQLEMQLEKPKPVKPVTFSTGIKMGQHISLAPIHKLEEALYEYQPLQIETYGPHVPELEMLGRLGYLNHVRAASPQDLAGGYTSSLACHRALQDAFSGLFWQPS

CDK4-CYCLIND1 = CDK4-CYCLIND1 (Homo sapiens, UniProt P11802); assay: as above; conditions: CDK4 CyclinD1 IC50, Table 4a; a second value in parentheses for some compounds
CDK4-CYCLIND1, sequence (P11802 whole entry): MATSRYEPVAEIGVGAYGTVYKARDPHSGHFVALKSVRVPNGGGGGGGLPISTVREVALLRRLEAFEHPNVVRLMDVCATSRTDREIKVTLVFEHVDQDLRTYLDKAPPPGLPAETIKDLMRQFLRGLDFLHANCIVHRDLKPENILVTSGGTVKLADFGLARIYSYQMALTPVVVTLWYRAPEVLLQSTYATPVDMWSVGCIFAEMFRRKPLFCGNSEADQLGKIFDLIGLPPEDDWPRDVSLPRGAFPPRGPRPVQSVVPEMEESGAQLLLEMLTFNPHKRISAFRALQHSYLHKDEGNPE
CDK4-CYCLIND1, sequence (P24385 whole entry partner): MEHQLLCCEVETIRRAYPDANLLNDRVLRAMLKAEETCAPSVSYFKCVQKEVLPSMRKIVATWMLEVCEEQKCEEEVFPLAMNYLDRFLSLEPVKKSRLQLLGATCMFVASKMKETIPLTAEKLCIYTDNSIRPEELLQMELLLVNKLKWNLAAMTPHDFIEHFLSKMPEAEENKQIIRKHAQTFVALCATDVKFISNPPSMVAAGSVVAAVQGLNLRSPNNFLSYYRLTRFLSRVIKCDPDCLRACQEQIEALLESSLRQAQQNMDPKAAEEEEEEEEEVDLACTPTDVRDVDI

LEXFAL MOLT-4 = assay: 2D cell proliferation assay (CellTiter-Blue); type: cell-based; conditions: Homo sapiens, 72 h, three days of treatment, read-out: abs. IC50
Method in brief: as §1

[1] = Pharmacokinetics after oral administration; type: in vivo; conditions: rat, plasma, rats
Experimental: (§3) Nonclinical pharmacokinetic (PK) parameters of lead CDK4/6/9 inhibitors were determined in an intravenous (IV) and oral study (p.o.) conducted in rats. Lead compounds were each administered as a single oral dose at 100 mg/kg or by IV bolus via the caudal vein at the dose of 30 mg/kg. Blood samples were collected at 0.25, 0.5, 1, 2, 4, 8, 12, and 24 hours post i.v. administration, and at 1, 2, 4, 8, 24 and 48 hours post oral administration. Plasma was processed for drug concentration analysis using a validated LCMS/MS method, and PK parameters were calculated by using WinNonlin.

[2] = Pharmacokinetics after IV bolus; type: in vivo; conditions: rat, plasma; rats; IV bolus 30 mg/kg; N = 3
Experimental: as §3

LYXFNH Daudi = assay: 2D cell proliferation assay (CellTiter-Blue); type: cell-based; conditions: Homo sapiens, 72 h, three days of treatment, read-out: abs. IC50
Method in brief: as §1

[3] = oral administration 100 mg/kg, N = 3

T1 sequence (P50750 whole entry): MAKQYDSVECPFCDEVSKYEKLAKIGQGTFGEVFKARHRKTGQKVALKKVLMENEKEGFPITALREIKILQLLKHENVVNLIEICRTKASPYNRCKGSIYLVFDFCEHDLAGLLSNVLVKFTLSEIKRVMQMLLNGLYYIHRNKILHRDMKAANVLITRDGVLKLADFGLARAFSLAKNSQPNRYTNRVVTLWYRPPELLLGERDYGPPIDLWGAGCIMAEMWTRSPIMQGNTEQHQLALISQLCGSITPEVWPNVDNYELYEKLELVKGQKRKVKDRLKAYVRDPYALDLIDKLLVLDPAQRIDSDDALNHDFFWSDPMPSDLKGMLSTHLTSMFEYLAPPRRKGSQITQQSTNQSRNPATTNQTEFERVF
T1 sequence (O60563 whole entry partner): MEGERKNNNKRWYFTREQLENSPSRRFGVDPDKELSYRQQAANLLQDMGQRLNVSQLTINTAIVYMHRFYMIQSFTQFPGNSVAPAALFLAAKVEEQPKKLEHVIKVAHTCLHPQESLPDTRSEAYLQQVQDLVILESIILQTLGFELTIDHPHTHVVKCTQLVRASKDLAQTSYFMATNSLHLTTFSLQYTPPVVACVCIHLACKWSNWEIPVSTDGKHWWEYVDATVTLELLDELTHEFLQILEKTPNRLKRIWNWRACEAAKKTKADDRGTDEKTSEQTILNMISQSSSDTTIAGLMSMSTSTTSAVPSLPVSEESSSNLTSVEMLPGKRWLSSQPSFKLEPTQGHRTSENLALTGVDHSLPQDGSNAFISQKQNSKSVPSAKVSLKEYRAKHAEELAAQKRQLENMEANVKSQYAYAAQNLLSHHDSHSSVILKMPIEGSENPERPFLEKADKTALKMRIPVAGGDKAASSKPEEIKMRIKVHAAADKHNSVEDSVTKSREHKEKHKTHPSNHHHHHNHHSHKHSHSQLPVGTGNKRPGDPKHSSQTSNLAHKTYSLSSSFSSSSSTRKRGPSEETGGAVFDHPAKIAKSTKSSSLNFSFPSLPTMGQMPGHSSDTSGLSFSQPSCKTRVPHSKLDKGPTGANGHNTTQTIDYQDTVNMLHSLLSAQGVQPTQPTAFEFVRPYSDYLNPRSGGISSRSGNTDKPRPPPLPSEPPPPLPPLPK

Compound | IC50 (CDK9-CYCLINT1) [µM] | IC50 (MAXFLB T47D (ER+)) [µM] | IC50 (LXFE Calu-1) [µM] | IC50 (BXF 5637) [µM] | IC50 (MAXFTN MDA-MB-231 (ER−)) [µM] | IC50 (PAXF MIA-Pa-Ca-2) [µM] | IC50 (MAXFTN ZR-75-1 (ER+)) [µM] | IC50 (CNXF U-87 MG) [µM] | IC50 (LIXFH HEP-3B) [µM] | IC50 (LIXAH HLE) [µM] | IC50 (MAXFTN MDA-MB-453) [µM] | IC50 (MAXFHER BT-474) [µM] | IC50 (MAXFLB MCF7 (ER+)) [µM] | IC50 (all cell lines tested) [µM] | IC50 (CDK6-CYCLIND3) [µM] | IC50 (CDK2-CYCLINA) [µM] | IC50 (CDK7 CyclinH) [µM] | IC50 (CDK4-CYCLIND1) [µM] | further results
CC(C)N1CCN(c2ccc(Nc3ncc4c(n3)N(C3CCCC3)C(=O)[C@]3(CCNC3=O)C4)nc2)CC1 [Example D154, (S)-8-cyclopentyl-2-((5-(4-isopropylpiperazin-1-yl)pyridin-2-yl)amino)-5,8-dihydro-7H-spiro[pyrido[2,3-d]pyrimidine-6,3′-pyrrolidine]-2′,7-dione] | 0.163 | 97.4 | 48.7 | 17.6 | 4.86 | 73.9 | ≥ 100 | ≥ 100 | 78.9 | 21.5 | 7.68 | 81.1 | 29.8 | 17 | 0.00234 | 2.14 | 13.5 | 0.00205 | 
CN(C)CCOc1ccc(Nc2ncc3c(n2)N(C2CCCC2)C(=O)[C@]2(CCNC2=O)C3)cc1 [Example D179, (S)-8-cyclopentyl-2-((4-(2-(dimethylamino)ethoxy)phenyl)amino)-5,8-dihydro-7H-spiro[pyrido[2,3-d]pyrimidine-6,3′-pyrrolidine]-2′,7-dione] | 0.00185 | 0.829 | 1.25 | 0.143 | 0.053 | 0.163 | 0.409 | ≥ 100 | 0.171 | 0.103 | 0.057 | 0.125 | 0.057 | 0.205 | 0.00215 | 0.0675 | 0.321 | 0.00127 | IC50 (LEXFAL MOLT-4): 0.177 µM; bioavailability ([1]; oral 100 mg/kg versus IV 30 mg/kg, read-out: BIOAVAILABILITY F): 36.3%; AUC [1, 3]: 14.2 µg·h/mL; Cmax [1, 3]: 3.36 µg/mL; MRT [1, 3]: 2.99 h; half-life [1, 3]: 3.1 h; Cmax [2]: 6.2 µg/mL; clearance [2]: 2.3 L/h/kg; half-life [2]: 2.26 h
O=C1NCC[C@@]12Cc1cnc(Nc3ccc(N4CCNCC4)cc3F)nc1N(C1CCCC1)C2=O [Example D146, (S)-8-cyclopentyl-2-((2-fluoro-4-(piperazin-1-yl)phenyl)amino)-5,8-dihydro-7H-spiro[pyrido[2,3-d]pyrimidine-6,3′-pyrrolidine]-2′,7-dione] | 0.0248 | 1.63 | 5.96 | 1.49 | 0.703 | 6.3 | 9.03 | 10.8 | 3.67 | 0.928 | 0.327 | 5.55 | 1.04 | 1.24 | 0.00812 | 0.273 | 1.12 | 0.00419 | IC50 (LYXFNH Daudi): 0.162 µM
CN(C)[C@H]1CCN(c2ccc(Nc3ncc4c(n3)N(C3CCCC3)C(=O)[C@]3(CCNC3=O)C4)nc2)C1 [Example D178, (S)-8-cyclopentyl-2-((5-((S)-3-(dimethylamino)pyrrolidin-1-yl)pyridin-2-yl)amino)-5,8-dihydro-7H-spiro[pyrido[2,3-d]pyrimidine-6,3′-pyrrolidine]-2′,7-dione] | 0.00425 | 46.2 | 78.6 | 34.3 | 2.45 | 65.9 | 88.2 | 75.5 | 67.8 | 21.3 | 2 | 67.9 | 32 | 16.5 | 0.00188 | 0.127 | 1.13 | 0.00103 | 
